# In US5747320A (The United States of America, as represented by the …, priority 1996, dated 1998):
# Entries after “also recorded” stand apart in the source; their conditions may differ.
# Assays:
# [1] = system: purified β-glucosidase from Candida peltata Y-21603; test: Inhibition by glucose, cellobiose and other sugars; inhibitors and activators (pNPβG hydrolysis assay); type: biochemical
# Description: FIG. 4. […] Reaction time was 15 min at pH 5.0 and 50° C. Enzyme used, 39 mU/ml. pNPβG used: .smallcircle., 0.4 mM; .circle-solid., 0.8 mM; .tangle-solidup., 1.2 mM; Δ, 1.6 mM; .quadrature., 2.0 mM; .box-solid., 2.4 mM.
# After incubation at 50° C. for 30 min, the reaction was stopped by adding ice-cold 0.5M Na2 CO3 (1 ml) and the color developed as a result of p-nitrophenol (pNP) liberation was measured at 405 nm.
# Inhibition by glucose cellobiose and other sugars. The study of inhibition by glucose was performed with pNPβG as substrate.
# Inhibitors and activators.
# [2] = system: purified β-glucosidase from Candida peltata Y-21603; test: Substrate specificity and kinetic analysis (Lineweaver-Burk); type: biochemical; conditions: for Vmax / Km: pH 5.0 and 50° C.; for Km: read-out: apparent Km; for activity on substrate (relative rate of hydrolysis): disaccharides; for relative rate of hydrolysis, of that of pNPβG: aryl-glycosides
# Source text: Substrate specificity and kinetic analysis. Relative rates of hydrolysis of various substrates by the purified β-glucosidase were studied. The enzyme could hydrolyze pNPβG and cellobiose effectively. Salicin was hydrolyzed at 34% of that of cellobiose. The purified enzyme had very little (<5%) or no activity on lactose, maltose, sucrose and trehalose. It also had no or very little activity on p-nitrophenyl-α-D-glucoside, p-nitrophenyl-β-D-xyloside, p-nitrophenyl-β-D-cellobioside, p-nitrophenyl-α-L-arabinofuranoside, and p-nitrophenyl-β-D-glucuronide (<5%). p-Nitrophenyl-β-D-galactoside was hydrolyzed at 6% of that of pNPβG. The reaction kinetics of the purified enzyme were determined from Lineweaver-Burk plots using pNPβG and cellooligosaccharides (cellobiose to cellohexaose) as substrates under optimal conditions (pH 5.0 and 50° C.).
# [3] = system: purified β-glucosidase from Candida peltata Y-21603; test: Inhibition by glucose, cellobiose and other sugars; inhibitors and activators (pNPβG hydrolysis assay); type: biochemical; remark: listed apart in the source
# [4] = system: Candida peltata Y-21603; test: Growth and β-glucosidase production on various carbon sources; type: cell-based; conditions: 28° C., 4 days
# Description: Yeast strain, medium and culture conditions. The yeast strain (C. peltata NRRL Y-21603, also available as NRRL Y-6888) used in this study was obtained from the ARS culture collection, NCAUR, Peoria, Ill. The medium ([…] et al., 1982, Biotechnol. […] Solution A was a trace mineral solution having the following ingredients (per L): 1.1 g CaO, 0.4 g ZnO, 5.4 g FeCl3 ·6H2 O, 0.25 g CuSO4.5H2 O, 0.24 g CoCl2.6H2 O, 0.06 g H3 BO3 and 13 ml concentrated HCl. Solution B (per L) was composed of 10.1 g MgO and 45 ml concentrated HCl. Solution C (per L) contained 64 g urea, 12 g KH2 PO4, and 1.8 g Na2 HPO4. Substrates were sterilized separately. […] After 4 days, the cells were removed from the culture broth by centrifugation (18,000×g, 20 min). The resulting supernatant solution was used as the crude enzyme preparation. […] Analytical methods. […] Glucose was a good growth substrate for production of β-glucosidase.
compound,measurement,setting,value
"O[C@H](CS)[C@H](O)CS (racemic) [DTT, dithiothreitol]",effect on enzyme activity,[1]; 10 mM,not affected
[Ca+2] [Ca^2+],dependence of enzyme activity on metal ion,[1]; 5 mM,not dependent
"OC[C@H]1O[C@@H](O[C@H]2[C@H](O)[C@@H](O)C(O)O[C@@H]2CO)[C@H](O)[C@@H](O)[C@@H]1O (stereo partly drawn) [Cellobiose, cellobiose]",Vmax,[2],75 μmol.min^-1.mg^-1 protein
same,Km,[2],66 mM
same,substrate inhibition,[3]; 15% cellobiose,no inhibition; also recorded: not observed at all; also recorded: not inhibited at all
same,Growth (A660),[4]; carbon source 1% w/v,8.7
[Co+2] [Co^2+],dependence of enzyme activity on metal ion,[1]; 0.5 mM,not dependent
OC[C@H]1OC(O)[C@H](O)[C@@H](O)[C@H]1O (stereo partly drawn) [Galactose],inhibition of β-glucosidase activity,[1]; sugar at 56 mM,did not inhibit
"OC[C@H]1OC(O)[C@H](O)[C@@H](O)[C@@H]1O (stereo partly drawn) [Glucose, glucose]",Growth (A660),[4]; carbon source 1% w/v,10.7
same,Growth (A660),[4]; carbon source 2% w/v,13.7
same,Growth (A660),[4]; carbon source 4% w/v,13.3
same,Growth (A660),[4]; carbon source 8% w/v,9.7
same,Growth (A660),[4]; carbon source 12% w/v,7.9
same,Growth (A660),[4]; carbon source 20% w/v,7.3
O=C[C@H](O)[C@@H](O)[C@@H](O)CO [L-Arabinose],Growth (A660),[4]; carbon source 1% w/v,9.4
"OC[C@H]1O[C@@H](O[C@H]2[C@H](O)[C@@H](O)C(O)O[C@@H]2CO)[C@H](O)[C@@H](O)[C@H]1O (stereo partly drawn) [Lactose, lactose]",activity on substrate (relative rate of hydrolysis),[2]; purified enzyme,< 5%
same,inhibition of β-glucosidase activity,[1]; sugar at 29 mM,did not inhibit
same,Growth (A660),[4]; carbon source 1% w/v,2.5
"OC[C@H]1O[C@H](O[C@H]2[C@H](O)[C@@H](O)[C@H](O)O[C@@H]2CO)[C@H](O)[C@@H](O)[C@@H]1O [Maltose, maltose]",activity on substrate (relative rate of hydrolysis),[2]; purified enzyme,< 5%
same,Growth (A660),[4]; carbon source 1% w/v,9.3
[Mg+2] [Mg^2+],dependence of enzyme activity on metal ion,[1]; 5 mM,not dependent
[Mn+2] [Mn^2+],dependence of enzyme activity on metal ion,[1]; 5 mM,not dependent
OCc1ccccc1O[C@@H]1O[C@H](CO)[C@@H](O)[C@H](O)[C@H]1O [Salicin],"relative rate of hydrolysis, of that of cellobiose",[2]; purified enzyme,34%
"OC[C@H]1O[C@@](CO)(O[C@H]2O[C@H](CO)[C@@H](O)[C@H](O)[C@H]2O)[C@@H](O)[C@@H]1O [Sucrose, sucrose]",activity on substrate (relative rate of hydrolysis),[2]; purified enzyme,< 5%
same,inhibition of β-glucosidase activity,[1]; sugar at 29 mM,did not inhibit
same,Growth (A660),[4]; carbon source 1% w/v,9.0
"OC1OC[C@@H](O)[C@H](O)[C@H]1O (stereo partly drawn) [Xylose, xylose]",inhibition of β-glucosidase activity,[1]; sugar at 56 mM,did not inhibit
same,Growth (A660),[4]; carbon source 1% w/v,11.3
OC[C@H]1O[C@@H](O[C@H]2[C@H](O)[C@@H](O)[C@H](O[C@H]3[C@H](O)[C@@H](O)[C@H](O[C@H]4[C@H](O)[C@@H](O)[C@H](O[C@H]5[C@H](O)[C@@H](O)[C@H](O[C@H]6[C@H](O)[C@@H](O)C(O)O[C@@H]6CO)O[C@@H]5CO)O[C@@H]4CO)O[C@@H]3CO)O[C@@H]2CO)[C@H](O)[C@@H](O)[C@@H]1O (stereo partly drawn) [cellohexaose],Vmax,[2],5 μmol.min^-1.mg^-1 protein
same,Km,[2],18 mM
OC[C@H]1O[C@@H](O[C@H]2[C@H](O)[C@@H](O)[C@H](O[C@H]3[C@H](O)[C@@H](O)[C@H](O[C@H]4[C@H](O)[C@@H](O)[C@H](O[C@H]5[C@H](O)[C@@H](O)C(O)O[C@@H]5CO)O[C@@H]4CO)O[C@@H]3CO)O[C@@H]2CO)[C@H](O)[C@@H](O)[C@@H]1O (stereo partly drawn) [cellopentaose],Vmax,[2],8 μmol.min^-1.mg^-1 protein
same,Km,[2],21 mM
OC[C@H]1O[C@@H](O[C@H]2[C@H](O)[C@@H](O)[C@H](O[C@H]3[C@H](O)[C@@H](O)[C@H](O[C@H]4[C@H](O)[C@@H](O)C(O)O[C@@H]4CO)O[C@@H]3CO)O[C@@H]2CO)[C@H](O)[C@@H](O)[C@@H]1O (stereo partly drawn) [cellotetraose],Vmax,[2],16 μmol.min^-1.mg^-1 protein
same,Km,[2],35 mM
OC[C@H]1O[C@@H](O[C@H]2[C@H](O)[C@@H](O)[C@H](O[C@H]3[C@H](O)[C@@H](O)C(O)O[C@@H]3CO)O[C@@H]2CO)[C@H](O)[C@@H](O)[C@@H]1O (stereo partly drawn) [cellotriose],Vmax,[2],32 μmol.min^-1.mg^-1 protein
same,Km,[2],39 mM
CCO [ethanol],increase of pNPβG hydrolysis (initial activity),"[1]; 0.75% (v/v) ethanol, pH 5.0, 50° C., 30 min reaction",11%
O=C(CO)[C@@H](O)[C@H](O)[C@H](O)CO [fructose],inhibition of β-glucosidase activity,[1]; sugar at 56 mM,did not inhibit
OC[C@H]1OC(O)[C@@H](O)[C@@H](O)[C@@H]1O (stereo partly drawn) [mannose],inhibition of β-glucosidase activity,[1]; sugar at 56 mM,did not inhibit
O=[N+]([O-])c1ccc(O[C@@H]2O[C@H](CO)[C@H](O)[C@H](O)[C@H]2O)cc1 [p-Nitrophenyl-β-D-galactoside],"relative rate of hydrolysis, of that of pNPβG",[2]; purified enzyme,6%
O=[N+]([O-])c1ccc(O[C@H]2O[C@H](CO)[C@@H](O)[C@H](O)[C@H]2O)cc1 [p-nitrophenyl-α-D-glucoside],"relative rate of hydrolysis, of that of pNPβG",[2]; purified enzyme,< 5%
O=[N+]([O-])c1ccc(O[C@@H]2O[C@@H](CO)[C@H](O)[C@H]2O)cc1 [p-nitrophenyl-α-L-arabinofuranoside],"relative rate of hydrolysis, of that of pNPβG",[2]; purified enzyme,< 5%
O=[N+]([O-])c1ccc(O[C@@H]2O[C@H](CO)[C@@H](O[C@@H]3O[C@H](CO)[C@@H](O)[C@H](O)[C@H]3O)[C@H](O)[C@H]2O)cc1 [p-nitrophenyl-β-D-cellobioside],"relative rate of hydrolysis, of that of pNPβG",[2]; purified enzyme,< 5%
O=C(O)[C@H]1O[C@@H](Oc2ccc([N+](=O)[O-])cc2)[C@H](O)[C@@H](O)[C@@H]1O [p-nitrophenyl-β-D-glucuronide],"relative rate of hydrolysis, of that of pNPβG",[2]; purified enzyme,< 5%
O=[N+]([O-])c1ccc(O[C@@H]2OC[C@@H](O)[C@H](O)[C@H]2O)cc1 [p-nitrophenyl-β-D-xyloside],"relative rate of hydrolysis, of that of pNPβG",[2]; purified enzyme,< 5%
"O=C(O)c1cc[c]([Hg][Cl])cc1 [pCMB, p-chloromercuribenzoic acid]",effect on enzyme activity,[1]; 0.2 mM,not affected; also recorded: unaffected
"O=[N+]([O-])c1ccc(O[C@@H]2O[C@H](CO)[C@@H](O)[C@H](O)[C@H]2O)cc1 [pNPβG, p-nitrophenyl β-D-glucoside]",Vmax,[2],221 μmol.min^-1.mg^-1 protein
same,Km,[2],2.3 mM
same,substrate inhibition,[3]; 40 mM pNPβG,not observed at all; also recorded: not inhibited at all
OC[C@H]1O[C@H](O[C@H]2O[C@H](CO)[C@@H](O)[C@H](O)[C@H]2O)[C@H](O)[C@@H](O)[C@@H]1O [trehalose],activity on substrate (relative rate of hydrolysis),[2]; purified enzyme,< 5%
arabinose,inhibition of β-glucosidase activity,[1]; sugar at 56 mM,did not inhibit
